Where two headings read alike, the source gives them in different places.
Columns and labels:
[1] = target: T1, human catalytic PDI A1 a domain (PDIa) (Homo sapiens, UniProt P07237); assay: Isothermal titration calorimetry (ITC) binding to PDIa
T1 construct: made in house; host or cells: Escherichia coli BL21-Gold (DE3)
Description: All ITC experiments were carried out at 25° C. on MicoCal Auto-ITC200 system (GE Healthcare). Reduced PDIa was dialyzed into ITC buffer (20 mM sodium phosphate buffer pH 7.8) and loaded into a sample cell at 40 μM concentration. The compound solution was loaded into a syringe at 400 μM in the same ITC buffer with a final DMSO concentration at 0.4% (v/v). ITC titration experiments were carried out at 25° C. with 19 injections, 2 μl per injection, and 180 seconds between each injection. The reference cell power was set to 5 μcal/sec. A control experiment was performed for each compound, where each compound was titrated into buffer to account for heat released due to dilution. This background was subtracted from test data before a final dissociation constant was obtained. Data were analyzed using a one-site binding model in Origin 7.1 software. […] Gibbs free energy, ΔG, was calculated from equation ΔG=ΔH−TΔS. All other parameters, Ka, n, ΔH, ΔS, were determined directly from the titration data.
For ITC experiments with 16F16 pre-treatment, 40 μM PDIa (after dialysis into ITC buffer) was treated with 200 μM 16F16 for 12-15 hours at 4° C. Next day the whole solution was loaded into the sample cell. LOC14 at 400 μM in ITC buffer was loaded into syringe and titrated into PDIa+16F16 loaded cell. For control experiments, ITC buffer with 200 μM 16F16 was used in the cell, while 400 μM LOC14 in ITC buffer was used in the syringe.
The binding mode of LOC14 to PDIa was next investigated using isothermal titration calorimetry (ITC). ITC measures the heat released or absorbed during a biomolecular interaction. It is a direct analytical method for determining the binding and thermodynamic parameters, such as reaction stoichiometry (n), binding constants (Ka and Kd), enthalpy (ΔH), entropy (ΔS), and free energy (ΔG) of an interaction.

PC12 mHTT^Q103 cells = assay: Rescue of PC12 cells from mHTT^Q103 induced cell death (Alamar blue viability); assay type: cell-based; settings: Table 5; for EC50: Rattus norvegicus, PC-12, read-out: Cell Viability Assay EC50
Description: PC12 mHTT^Q103 cells were a gift from Erik S. Schweitzer (UCLA School of Medicine, Los Angeles, Calif.). These cells are stably transfected with the first exon of human HTT gene containing the pathogenic 103 CAG/CAA repeat expansion, under the control of the ecdysteroid promoter (Aiken et al., 2004). The plasmid also contains a Bombyx mori ecdysone receptor gene fused at N-terminal with VP16 transactivation domain (Suhr et al., 1998; Vilaboa et al., 2011). Addition of the ecdysone analog, tebufenozide, to the cell culture medium is used to initiate the transcription of mutant HTT (Aiken et al., 2004).
PC12 mHTT^Q103 cells were cultured in DMEM containing 4.5 g/I glucose, 25 mM HEPES, sodium pyruvate, and no L-glutamine (Mediatech, cat. no. 15-018-CV), supplemented with 10% (v/v) Cosmic Calf serum, 2 mM L-glutamine, 100 units/mL of penicillin-streptomycin, and 0.5 mg/ml active geneticin. Cells were grown at 37° C., 9.5% CO2, and the medium was replaced with fresh medium every 2-3 days. To induce mHTT^Q103 expression for experiments, tebufenozide, a gift from Lynne Moore and Fred H. Gage (The Salk Institute for Biological Studies, La Jolla, Calif.), was added to the medium at 200 nM final concentration from 1 mM stock in 85% ethanol.
LOC mother plates with compounds at 4 mg/ml were thawed and spun down (1000 rpm, 20° C., 1 min) prior to use. Biomek FX (Beckman Coulter) robotic liquid dispenser was used to handle all liquid transferring and mixing. […] Two fold serial dilution was performed across five daughter plates by transferring 50 μl of compounds (at […]) from the D1 plate into 50 μl of PC12 medium in daughter plate D2, mixing, and then repeating the process for the remaining three plates. Daughter plate D1 with compounds at […], daughter plate D3 with compounds at 20 μl/ml and daughter plate D5 with compounds at 5 μl/ml were then used for the screen. Assay plates were set up by seeding tebufenozide-induced PC12 mHTT^Q103 cells into 384-well black, clear-bottom plates (Corning Inc. cat. no. 3712) at a density of 7,500 cells per well in 57 μl PC12 medium without geneticin. Three microliters of compound from the daughter plates (D1, D3, and D5) were added to the assay plates for a final compound concentration of 4 μl/ml, 1 μl/ml, and 0.25 μl/ml. Four wells containing uninduced PC12 mHTT^Q103 cells and four wells containing medium only, were also included on each plate as controls. The assay plates were incubated at 37° C., 9.5% CO2 for 48 hours. Twenty microliters of 40% Alamar blue (Life Technologies cat. no. DAL1100) solution in PC12 medium was added to each well (1:10 final dilution) and the plates were incubated for an additional 12-24 hours at 37° C., 9.5% CO2. Alamar blue fluorescence was read on a fluorescence plate reader (PerkinElmer Victor3) with 530 nm excitation filter and 590 nm emission filter. Each compound concentration was tested in triplicate.
The follow-up testing of primary screen hits was performed in a similar way. Fresh powder stocks of primary hits were re-ordered from vendors, dissolved in DMSO and tested in a two-fold serial dilution across 10 wells in both tebufenozide-induced and uninduced PC12 mHTT^Q103 cells. Dose-response curves were plotted as mean±SD and fit to either four-parameter sigmoidal (for uninduced cells) or bell-shaped (induced) function using Prism (GraphPad Software).
A cascade of two assays was used, involving both a phenotypic high-throughput screening (HTS) assay and an in vitro PDI reductase assay, to identify neuroprotective PDI-inhibiting compounds. […] Alamar blue was used as a fluorescent readout for viability after 48 hours of compound treatment and mHTT^Q103 induction. […] All the candidate hit compounds were re-tested in a two-fold dilution series.

[2] = target: T2, recombinant catalytic a domain of human PDI A1 (PDIa) (Homo sapiens, UniProt P07237); assay: Insulin aggregation assay (PDIa reductase activity); assay type: biochemical; settings: Table 5
T2 construct: made in house; host or cells: Escherichia coli BL21-Gold (DE3)
Description: In this insulin aggregation assay (Xu et al., 2012; Jasuja et al., 2012; Khan et al., 2011; Smith et al., 2004), PDIa reduced the two disulfide bonds between the α- and β-chains of insulin, causing the β-chain to aggregate and precipitate, resulting in an increase in absorbance at 650 nm.
To investigate the mode of binding further and to determine whether the binding was reversible or irreversible, the recovery of enzymatic activity of PDIa after dilution of pre-formed concentrated PDIa-LOC14 complexes was analyzed. LOC14 (750 μM) was incubated with a concentrated solution of PDIa (500 μM). The mixture was then diluted 100-fold and PDI's enzymatic activity was measured in the insulin reduction assay. As a control, the same procedure was also performed on the sample containing an irreversible inhibitor, 16F16 (16F16 at 750 μM and PDIa at 500 μM). […] This illustrated that unlike 16F16, LOC14 binding to PDIa is reversible.

[3] = PDIa, Table 5, read-out: ITC Assay KD

T2 sequence (P07237 with tags, fused parts or gaps): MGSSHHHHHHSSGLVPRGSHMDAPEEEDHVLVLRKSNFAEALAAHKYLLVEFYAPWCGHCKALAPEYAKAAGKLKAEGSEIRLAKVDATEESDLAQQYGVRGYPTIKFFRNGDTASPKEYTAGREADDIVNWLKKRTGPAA
T1 sequence (P07237 with tags, fused parts or gaps): as above

## O=c1[nH]sc2ccccc12 [BIT fragment, 1,2,Benzisothiazol-3-one]
[1]; PDIa, Table 4, read-out: ITC KD
  Kd: 142 nM

## O=C(c1ccccc1)n1sc2ccccc2c1=O [LC-11]
PC12 mHTT^Q103 cells
  EC50: > 50000 nM
[2]
  Insulin Assay (either active or inactive): not active
[1]; PDIa, Table 5
  ITC Assay KD: KD = N/A irreversible or not

## O=c1c2ccccc2sn1CN1CCOCC1 [LC-18]
PC12 mHTT^Q103 cells
  EC50: 547 nM
[2]
  Insulin Assay (either active or inactive): Active
[1]; [3]
  Kd: 253 nM

## O=C(NCc1ccc(Br)cc1)c1ccccc1S [LC-20]
PC12 mHTT^Q103 cells
  EC50: > 50000 nM
[2]
  Insulin Assay (either active or inactive): not active t
[1]; PDIa, Table 5
  ITC Assay KD: KD = N/A irreversible or not active

## O=C(Nc1ccc(N2CCOCC2)cc1)c1ccccc1S [LC-21]
PC12 mHTT^Q103 cells
  EC50: 696 nM
[2]
  Insulin Assay (either active or inactive): not active
[1]; PDIa, Table 5
  ITC Assay KD: KD = N/A irreversible or not active

## O=c1c2ccccc2sn1CN1CCN(Cc2ccccc2)CC1 [LC-22]
PC12 mHTT^Q103 cells
  EC50: 310 nM
[2]
  Insulin Assay (either active or inactive): Active
[1]; [3]
  Kd: 173 nM

## O=C(Nc1ccc(Cc2ccccc2)cc1)c1ccccc1S [LC-23]
PC12 mHTT^Q103 cells
  EC50: 3880 nM
[2]
  Insulin Assay (either active or inactive): not active
[1]; PDIa, Table 5
  ITC Assay KD: KD = N/A irreversible or not active

## O=c1c2ccccc2sn1-c1ccc(Cc2ccccc2)cc1 [LC-25]
PC12 mHTT^Q103 cells
  EC50: 1590 nM
[2]
  Insulin Assay (either active or inactive): not active
[1]; PDIa, Table 5
  ITC Assay KD: KD = N/A irreversible or not active

## O=c1c2ccccc2sn1Cc1ccc(Br)cc1 [LC-26]
PC12 mHTT^Q103 cells
  EC50: 778 nM
[2]
  Insulin Assay (either active or inactive): not active
[1]; PDIa, Table 5
  ITC Assay KD: KD = N/A irreversible or not active

## C[C@@H](NC(=O)c1ccccc1S)c1ccccc1 [LC-28]
PC12 mHTT^Q103 cells
  EC50: 808 nM
[2]
  Insulin Assay (either active or inactive): not active
[1]; PDIa, Table 5
  ITC Assay KD: KD = N/A irreversible or not active

## C[C@H](c1ccccc1)n1sc2ccccc2c1=O [LC-29]
PC12 mHTT^Q103 cells
  EC50: 519 nM
[2]
  Insulin Assay (either active or inactive): Active
[1]; [3]
  Kd: 658 nM

## O=C(Nc1cccc(F)c1)c1ccccc1S [LC-30]
PC12 mHTT^Q103 cells
  EC50: 2990 nM
[2]
  Insulin Assay (either active or inactive): not active
[1]; PDIa, Table 5
  ITC Assay KD: KD = N/A irreversible or not active

## O=c1c2ccccc2sn1-c1cccc(F)c1 [LC-31]
PC12 mHTT^Q103 cells
  EC50: 1760 nM
[2]
  Insulin Assay (either active or inactive): not active
[1]; PDIa, Table 5
  ITC Assay KD: KD = N/A irreversible or not

## COCCn1sc2ccccc2c1=O [LC-32]
PC12 mHTT^Q103 cells
  EC50: 700 nM
[2]
  Insulin Assay (either active or inactive): Active
[1]; [3]
  Kd: 158 nM

## O=C(Nc1ccc(Oc2ccccc2)cc1)c1ccccc1S [LC-33]
PC12 mHTT^Q103 cells
  EC50: 2940 nM
[2]
  Insulin Assay (either active or inactive): not active
[1]; PDIa, Table 5
  ITC Assay KD: KD = N/A irreversible or not active

## Cc1ccc(NC(=O)c2ccccc2S)c(Br)c1 [LC-34]
PC12 mHTT^Q103 cells
  EC50: 3770 nM
[2]
  Insulin Assay (either active or inactive): not active
[1]; PDIa, Table 5
  ITC Assay KD: KD = N/A irreversible or not active

## Cn1sccc1=O [LC-35]
PC12 mHTT^Q103 cells
  Cell Viability Assay EC50: Not Active
[2]
  Insulin Assay (either active or inactive): Active
[1]; PDIa, Table 5
  ITC Assay KD: KD = N/A irreversible or not active

## Cc1ccc(-n2sc3ccccc3c2=O)c(Br)c1 [LC-36]
PC12 mHTT^Q103 cells
  EC50: 1590 nM
[2]
  Insulin Assay (either active or inactive): not active
[1]; [3]
  Kd: 25.3 nM

## O=c1c2ccccc2sn1-c1ccc(Oc2ccccc2)cc1 [LC-37]
PC12 mHTT^Q103 cells
  EC50: 1680 nM
[2]
  Insulin Assay (either active or inactive): not active
[1]; PDIa, Table 5
  ITC Assay KD: KD = N/A irreversible or not active

## O=c1[nH]sc2c(Cl)cccc12 [LC-38]
[2]
  Insulin Assay (either active or inactive): not active
[1]; PDIa, Table 5
  ITC Assay KD: KD = N/A irreversible or not active

## O=C(C1CC1)N1CCN(Cn2sc3c(Cl)cccc3c2=O)CC1 [LC-39]
[2]
  Insulin Assay (either active or inactive): not active
[1]; PDIa, Table 5
  ITC Assay KD: KD = N/A irreversible or not active

## O=c1[nH]sc2c(F)cccc12 [LC-40]
PC12 mHTT^Q103 cells
  EC50: 9320 nM
[2]
  Insulin Assay (either active or inactive): Active
[1]; PDIa, Table 5
  ITC Assay KD: KD = N/A irreversible or not active

## O=c1[nH]sc2c(C(F)(F)F)cccc12 [LC-41]
[2]
  Insulin Assay (either active or inactive): not active
[1]; PDIa, Table 5
  ITC Assay KD: KD = N/A irreversible or not active

## O=C(C1CC1)N1CCN(Cn2sc3c(C(F)(F)F)cccc3c2=O)CC1 [LC-42]
[2]
  Insulin Assay (either active or inactive): not active
[1]; PDIa, Table 5
  ITC Assay KD: KD = N/A irreversible or not active

## NC(=O)c1cccc(C(F)(F)F)c1SSc1c(C(N)=O)cccc1C(F)(F)F [LC-45]
[2]
  Insulin Assay (either active or inactive): not active
[1]; PDIa, Table 5
  ITC Assay KD: KD = N/A irreversible or not active

## O=c1ssc2ccccc12 [LC-48]
[2]
  Insulin Assay (either active or inactive): not active

## S=c1ssc2ccccc12 [LC-49]
[2]
  Insulin Assay (either active or inactive): not active

## O=c1c2cccnc2sn1CCN1CCCCC1 [LC-54]
[2]
  Insulin Assay (either active or inactive): Active

## O=c1c2cccnc2sn1CCN1CCOCC1 [LC-55]
[2]
  Insulin Assay (either active or inactive): Active

## O=c1c2cccnc2sn1CCC1CCNCC1 [LC-56]
[2]
  Insulin Assay (either active or inactive): Active

## Cc1nnc2s[nH]c(=O)c2c1C [LC-57]
PC12 mHTT^Q103 cells
  EC50: 12200 nM
[2]
  Insulin Assay (either active or inactive): Active

## C[C@H](c1ccccc1)n1sc2ncccc2c1=O [LC-58]
[2]
  Insulin Assay (either active or inactive): Active

## O=C(C1CC1)N1CCN(Cn2oc3ccccc3c2=O)CC1 [Oxy-LOC14, 2-((4-(cyclopropanecarbonyl)piperazin-1-yl)methyl)benzo[d]isoxazol-3(2H)-one]
[1]; ITC, PDIa
  loss in binding affinity compared to LOC14: 35 fold
[1]; reduced PDIa 40 μM, compound 400 μM, 25° C., read-out: dissociation constant (Kd)
  Kd: 2430 nM

Reference: patent US20180092908A1, “SMALL MOLECULE OXIDIZERS OF PDI AND THEIR USE” (THE TRUSTEES OF COLUMBIA UNIVERSITY IN THE CITY OF NEW YORK, priority 2015, published 2018)
